Measured values taken from patent publication US20100093721A1, “PHENYL AND HETEROARYL SUBSTITUTED THIENO[2,3-d]PYRIMIDINES AND THEIR USE AS ADENOSINE A2a RECEPTOR ANTAGONISTS” (priority 2008, published 2010).

How the values were obtained:
[1] = target: T1, human A2a adenosine receptor (Homo sapiens, UniProt P29274); test: Ligand Binding Assay for Adenosine A2a Receptor; settings: HEK293 plasma membrane, radioligand [3H]CGS21680; read-out: A2A-B Ki
T1 construct: purchased PerkinElmer RB-HA2a; host or cells: HEK293 plasma membranes
Method: Ligand Binding Assay for Adenosine A2a Receptor
Ligand binding assay of adenosine A2a receptor was performed using plasma membrane of HEK293 cells containing human A2a adenosine receptor (PerkinElmer, RB-HA2a) and radioligand [^3H]CGS21680 (PerkinElmer, NET1021). Assay was set up in 96-well polypropylene plate in total volume of 200 μL by sequentially adding 20 μL 1:20 diluted membrane, 130 μL assay buffer (50 mM Tris.HCl, pH7.4 10 mM MgCl2, 1 mM EDTA) containing [^3H] CGS21680, 50 μL diluted compound (4×) or vehicle control in assay buffer. Nonspecific binding was determined by […] NECA. Reaction was carried out at room temperature for 2 hours before filtering through 96-well GF/C filter plate pre-soaked in 50 mM Tris.HCl, pH7.4 containing 0.3% polyethylenimine. Plates were then washed 5 times with cold 50 mM Tris.HCl, pH7.4, dried and sealed at the bottom. Microscintillation fluid 30 μL was added to each well and the top sealed. Plates were counted on Packard Topcount for [^3H]. Data was analyzed in Microsoft Excel and GraphPad Prism programs. (Varani, K.; Gessi, S.; Dalpiaz, A.; Borea, P. A. British Journal of Pharmacology, 1996, 117, 1693)

[2] = target: T2, human adenosine A1 receptor (Homo sapiens, UniProt P30542); test: Adenosine A1 Receptor Functional Assay (A1GAL2); type: cell-based; settings: CHO-K1 cells, cAMP inducible beta-galactosidase reporter, 4 nM r-PIA/1 uM Forskolin challenge
T2 construct: expressed in transfected cells; host or cells: CHO-K1
T2 sequence (P30542 1-326): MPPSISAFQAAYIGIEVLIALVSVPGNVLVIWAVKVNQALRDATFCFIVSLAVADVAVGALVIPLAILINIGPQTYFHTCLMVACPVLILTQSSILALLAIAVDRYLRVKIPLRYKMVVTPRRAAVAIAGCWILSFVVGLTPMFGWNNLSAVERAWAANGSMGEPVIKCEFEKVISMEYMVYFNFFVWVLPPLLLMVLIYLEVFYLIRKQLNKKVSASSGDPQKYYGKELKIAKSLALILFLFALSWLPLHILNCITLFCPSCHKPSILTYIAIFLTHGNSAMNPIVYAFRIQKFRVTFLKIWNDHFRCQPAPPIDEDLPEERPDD
Method: Adenosine A1 Receptor Functional Assay (A1GAL2)
(§1) To initiate the functional assay, cryopreserved CHO-K1 cells overexpressing the human adenosine A1 receptor and containing a cAMP inducible beta-galactosidase reporter gene were thawed, centrifuged, DMSO containing media removed, and then seeded with fresh culture media into clear 384-well tissue culture treated plates (BD #353961) at a concentration of 10K cells/well. Prior to assay, these plates were cultured for two days at 37° C., 5% CO2, 90% Rh. On the day of the functional assay, culture media was removed and replaced with 45 uL assay medium (Hams/F-12 Modified (Mediatech #10-080CV) supplemented w/0.1% BSA). Test compounds were diluted and 11 point curves created at a 1000× concentration in 100% DMSO. Immediately after addition of assay media to the cell plates, 50 nL of the appropriate test compound antagonist or agonist control curves were added to cell plates using a Cartesian Hummingbird. Compound curves were allowed to incubate at room temperature on cell plates for approximately 15 minutes before addition of a 4 nM r-PIA (Sigma P4532)/1 uM Forskolin (Sigma F3917) agonist challenge (5 uL volume). A control curve of r-PIA in 1 uM Forskolin, a DMSO/Media control, and a single dose of Forskolin were also included on each plate. After additions, cell plates were allowed to incubate at 37° C., 5% CO2, 90% Rh for 5.5-6 hours. After incubation, media was removed, and cell plates were washed 1×50 uL with DPBS w/o Ca & Mg (Mediatech 21-031-CV). Into dry wells, 20 uL of 1× Reporter Lysis Buffer (Promega E3971 (diluted in dH2O from 5× stock)) was added to each well and plates frozen at −20° C. overnight. For β-galactosidase enzyme calorimetric assay, plates were thawed out at room temperature and 20 μL 2× assay buffer (Promega) was added to each well. Color was allowed to develop at 37° C., 5% CO2, 90% Rh for 1-1.5 h or until reasonable signal appeared. The calorimetric reaction was stopped with the addition of 60 μL/well 1M sodium carbonate. Plates were counted at 405 nm on a SpectraMax Microplate Reader (Molecular Devices). Data was analyzed in Microsoft Excel and IC/EC50 curves were fit using a standardized macro.

[3] = target: T3, human adenosine A2a receptor (Homo sapiens, UniProt P29274); test: Adenosine A2a Receptor Functional Assay (A2AGAL2); type: cell-based; settings: CHO-K1 cells, cAMP inducible beta-galactosidase reporter, 15 nM NECA agonist challenge
T3 construct: expressed in transfected cells; host or cells: CHO-K1
Method: Adenosine A2a Receptor Functional Assay (A2AGAL2)
as §1, with “Prior” for “To initiate the functional assay, cryopreserved CHO-K1 cells overexpressing the human adenosine A1 receptor and containing a cAMP inducible beta-galactosidase reporter gene were thawed, centrifuged, DMSO containing media removed, and then seeded with fresh culture media into clear 384-well tissue culture treated plates (BD #353961) at a concentration of 10K cells/well. Prior”, “Compound curves were allowed to incubate at room temperature on cell plates for approximately 15 minutes before addition of a 4 nM r-PIA (Sigma P4532)/1 uM Forskolin (Sigma F3917) agonist challenge (5 uL volume).” left out, “NECA,” for “r-PIA in 1 uM Forskolin,”, “Forskolin (Sigma F3917)” for “Forskolin”, “colorimetric” for “calorimetric”

T3 sequence (P29274 whole entry): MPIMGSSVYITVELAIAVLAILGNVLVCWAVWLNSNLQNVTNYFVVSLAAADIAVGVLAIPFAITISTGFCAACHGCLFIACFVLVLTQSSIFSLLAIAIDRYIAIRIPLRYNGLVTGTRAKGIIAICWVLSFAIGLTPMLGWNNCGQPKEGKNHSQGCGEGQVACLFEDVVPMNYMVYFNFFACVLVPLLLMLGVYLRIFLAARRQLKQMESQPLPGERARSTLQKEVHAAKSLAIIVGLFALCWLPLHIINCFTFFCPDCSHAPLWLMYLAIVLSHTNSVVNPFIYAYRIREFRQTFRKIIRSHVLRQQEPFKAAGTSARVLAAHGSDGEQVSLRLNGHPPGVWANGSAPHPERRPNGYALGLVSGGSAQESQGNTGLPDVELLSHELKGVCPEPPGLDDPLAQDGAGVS
T1 sequence (P29274 whole entry): as above

| Compound | Ki [1] | Ki [2] | Ki [3] |
| --- | --- | --- | --- |
| Nc1nc(-c2ccc(C(F)F)o2)nc2sc(Cc3ccccc3)cc12 [Example 43, 6-Benzyl-2-(5-difluoromethyl-furan-2-yl)-thieno[2,3-d]pyrimidin-4-ylamine] | 37.5 nM | 3000 nM | 25.2 nM |
| Nc1nc(-c2cccnc2)nc2sc(Cc3ccccc3)cc12 [Example 13, 6-Benzyl-2-pyridin-3-yl-thieno[2,3-d]pyrimidin-4-ylamine] | 192 nM | 1420 nM | 215 nM |
| Cc1ccc(-c2nc(N)c3cc(CCc4ccc(F)cc4)sc3n2)o1 [Example 29, 6-[2-(4-Fluoro-phenyl)-ethyl]-2-(5-methyl-furan-2-yl)-thieno[2,3-d]pyrimidin-4-ylamine] | 6.61 nM | 1570 nM | 61.2 nM |
| COc1ccccc1Cc1cc2c(N)nc(-c3ccc(C)o3)nc2s1 [Example 12, 6-(2-Methoxy-benzyl)-2-(5-methyl-furan-2-yl)-thieno[2,3-d]pyrimidin-4-ylamine] | 51 nM | 115 nM | 10.1 nM |

The remaining compounds from weak to strong by Ki [1], led by results:

| Ki [1] | Ki [2] | Ki [3] | Compound |
| --- | --- | --- | --- |
| 100 nM | 505 nM | 230 nM | Cc1ccc(-c2nc(N)c3cc(C(=O)c4cccc(CN5CCOCC5)c4)sc3n2)o1 [Example 5, [4-Amino-2-(5-methyl-furan-2-yl)-thieno[2,3-d]pyrimidin-6-yl]-(3-morpholin-4-ylmethyl-phenyl)-methanone] |
| 72.7 nM | 1180 nM | 19.4 nM | CC(c1ccccc1)c1cc2c(N)nc(-c3ncco3)nc2s1 (racemic) [Example 21, (±)-2-Oxazol-2-yl-6-(1-phenyl-ethyl)-thieno[2,3-d]pyrimidin-4-ylamine] |
| 50 nM | 2760 nM | 189 nM | Cc1ccc(-c2nc(N)c3cc(CCc4ccccc4)sc3n2)o1 [Example 22, 2-(5-Methyl-furan-2-yl)-6-phenethyl-thieno[2,3-d]pyrimidin-4-ylamine] |
| 46.3 nM | 1490 nM | 16.1 nM | Cc1csc(-c2nc(N)c3cc(Cc4ccccc4)sc3n2)n1 [Example 14, 6-Benzyl-2-(4-methyl-thiazol-2-yl)-thieno[2,3-d]pyrimidin-4-ylamine] |
